The source of these data is patent US7396844B1, “Benzamidine derivatives” (Ajinomoto Co., Inc., priority 1997, dated 2008).

The target of assay [1] is T1, activated human blood coagulation factor X (Homo sapiens, UniProt P00742).
T1 construct: purchased Enzyme Research Co
The assay can be described thus: Determination of activity of inhibiting the activated blood coagulation factor X. The conditions noted are these: for IC50: read-out: Activity of inhibiting activated blood coagulation factor X (pIC50) (converted). It counts as biochemical. On the procedure: 130 μl of 100 mM Tris-HCl buffer adjusted to pH 8.4 was added to 10 μl of an aqueous solution of a compound to be tested. Then 10 μl of a 0.5 unit/ml solution of activated human blood coagulation factor X (a product of Enzyme Research Co.) in Tris-HCl buffer hydrochloride of pH 8.4 was added to the resultant mixture. After the incubation at room temperature for 10 minutes, 50 μl of a solution of N-benzoyl-L-isoleucyl-L-glutamyl-glycyl-L-arginyl-p-nitroanilide hydrochloride (a product of Peptide Institute, Inc.) adjusted to 0.8 mM with Tris-HCl buffer (pH 8.4) was added thereto. The absorbance was determined and then the initial reaction rate was determined. A control was prepared in the same manner as that described above except that the solution of the compound to be tested was replaced with 10 μl of Tris-HCl buffer adjusted to pH 8.4.

A further assay addresses T2, human thrombin (Homo sapiens, UniProt P00734).
T2 construct: human thrombin (a product of SIGMA Co.); purchased SIGMA Co
Nature of the assay: Determination of thrombin-inhibiting activity. Type of assay: biochemical. The conditions noted are these: for IC50: read-out: Thrombin-inhibiting activity (pIC50) (converted). The protocol: 130 μl of 100 mM Tris-HCl buffer adjusted to pH 8.4 was added to 10 μl of an aqueous solution of a test compound. Then 10 μl of a solution of human thrombin (a product of SIGMA Co.) adjusted to 2 units/ml with Tris-HCl buffer of pH 8.4 was added to the resultant mixture. […] The absorbance was determined and then the initial reaction rate was determined. A control was prepared in the same manner as that described above except that the solution of the compound to be tested was replaced with 10 μl of tris hydrochloride buffer adjusted to pH 8.4.

Setting [2] is: Table 1, negative logarithm of concentration inhibiting 50% of initial rate, Tris-HCl pH 8.4, room temperature.
Setting [3] is: Table 1, negative logarithm of concentration inhibiting 50% of initial rate, substrate S-2238, Tris-HCl pH 8.4.
Setting [4] is: Table 2, same manner as Example 93.
The mark [5] stands for this setting: Table 2, same manner as Example 94.

Counter-ions that a name gives are not always drawn. Like-named read-outs stand apart in the source and are kept apart here.

T1 sequence (P00742 235-488 limits assumed): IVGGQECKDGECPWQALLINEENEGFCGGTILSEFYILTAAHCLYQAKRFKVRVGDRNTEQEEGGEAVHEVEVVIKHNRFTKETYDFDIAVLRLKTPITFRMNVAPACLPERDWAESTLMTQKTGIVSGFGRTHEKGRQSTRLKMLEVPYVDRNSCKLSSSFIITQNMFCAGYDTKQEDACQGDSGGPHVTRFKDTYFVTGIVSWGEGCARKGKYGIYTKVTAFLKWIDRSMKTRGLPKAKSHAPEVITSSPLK
T1 sequence (P00742 41-179 partner limits assumed): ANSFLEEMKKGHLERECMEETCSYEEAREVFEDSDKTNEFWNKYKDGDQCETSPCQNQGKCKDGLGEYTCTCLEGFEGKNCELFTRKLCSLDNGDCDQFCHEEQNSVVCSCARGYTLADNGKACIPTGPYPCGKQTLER

As to `CC(=N)N1CCC(Oc2ccc(C(=O)N[C@@H](COc3cccc(C(=N)N)c3)CC(=O)O)cc2)CC1.O=C(O)C(F)(F)F.O=C(O)C(F)(F)F` [Compound of Ex. 62, (3R)-4-(3-amidinophenoxy)-3-[4-(1-acetimidoyl-4-piperidyloxy)benzoylamino]butylic acid bistrifluoroacetate], the “Activity of inhibiting activated blood coagulation factor X (pIC50)” value in assay [1] (setting [2]) is on record as 7.4. The “Thrombin-inhibiting activity (pIC50)” value on human thrombin (setting [3]) is reported as under 3.3.
As to `CCS(=O)(=O)N[C@H](COc1cccc(C(=N)N)c1)Cc1ccc(OC2CCN(C(C)=N)CC2)cc1` [Compound of Ex. 160, 3-[(2S)-2-(ethanesulfonylamino)-3-[4-(1-acetimidoyl-4-piperidyloxy)phenyl]propoxy]benzamidine bistrifluoroacetate], the results for the IC50 (in assay [1] (setting [4]); at human thrombin (setting [5])) were 0.316 µM and 158 µM, respectively.
Turning to `N=C(N)c1cccc(OCCNC(=O)c2ccc(N3CCCC3)cc2)c1` [Compound of Ex. 18, N-[2-(3-amidinophenoxy)ethyl]-4-(pyrrolidine-1-yl)benzamide trifluoroacetate], the IC50 is 0.0501 µM in assay [1] (setting [2]) and 39.8 µM at human thrombin (setting [3]).
In the case of `N=C(N)c1cccc(OCCNC(=O)c2cccc(C(=N)N)c2)c1` [Compound of Ex. 96, N-[2-(3-amidinophenoxy)ethyl]-3-amidinobenzamide bistrifluoroacetate], the IC50 in assay [1] (setting [4]) was 1.58 µM; on human thrombin (setting [5]), over 1000 µM.
Regarding `N=C(N)c1ccc(C(=O)N[C@@H](COc2cccc(C(=N)N)c2)CC(=O)O)cc1` [Compound of Ex. 119, (3R)-3-(4-amidinobenzoylamino)-4-(3-amidinophenoxy)butanoic acid bistrifluoroacetate], the IC50 in assay [1] (setting [4]) was 0.0251 µM; at human thrombin (setting [5]) it was over 1000 µM.
With `CCOC(=O)C[C@H](COc1cccc(C(=N)N)c1)NC(=O)c1ccc(N2CCCC2)cc1` [Compound of Ex. 59, ethyl (3R)-4-(3-amidinophenoxy)-3-[4-(pyrrolidine-1-yl)benzoylamino]butyrate trifluoroacetate], the IC50 in assay [1] (setting [2]) is 0.0398 µM; at human thrombin (setting [3]) it was 15.8 µM.
As to `CN(C)C(=N)c1ccc(C(=O)NCCOc2cccc(C(=N)N)c2)cc1` [Compound of Ex. 7, N-[2-(3-amidinophenoxy)ethyl]-4-(N,N-dimethylamidino)benzamide bistrifluoroacetate], in assay [1] (setting [2]), the IC50 was 0.0794 µM.
As for `N=C(N)c1ccc(CC(=O)C(=O)O)c(OCCNC(=O)c2ccc(CC3CCNCC3)cc2)c1` [Compound of Ex. 81, 3-[4-amidino-2-[2-[4-(4-piperidylmethyl)benzoylamino]ethoxy]phenyl]-2-oxopropionic acid bistrifluoroacetate], the IC50 is 0.0794 µM in assay [1] (setting [2]) and 31.6 µM on human thrombin (setting [3]).
Turning to `CN(C)C(=O)c1ccc(C(=O)CCCOc2cccc(C(=N)N)c2)cc1` [Compound of Ex. 64, 4-[4-(3-amidinophenoxy)butyryl]-N,N-dimethylbenzamide trifluoroacetate], the IC50 in assay [1] (setting [2]) is 0.0631 µM.
On to `N=C(N)c1cccc(OCCNC(=O)c2ccc(/C=C/c3ccncc3)cc2)c1` [Compound of Ex. 10, N-[2-(3-amidinophenoxy)ethyl]-4-[(E)-2-(pyridine-4-yl)vinyl]benzamide bistrifluoroacetate], for which the IC50 in assay [1] (setting [2]) is 0.1 µM; at human thrombin (setting [3]), 126 µM.
`N=C(N)c1ccc(C(=O)N[C@H](CCOc2cccc(C(=N)N)c2)C(=O)O)cc1` [Compound of Ex. 92, (2R)-2-(4-amidinobenzoylamino)-4-(3-amidinophenoxy)butanoic acid bistrifluoroacetate]: the IC50 is 0.0501 µM in assay [1] (setting [2]) and over 1000 µM on human thrombin (setting [3]).
The corresponding values for `N=C(N)c1cccc(OCCNC(=O)c2ccc(CCc3ccncc3)cc2)c1` [Compound of Ex. 14, N-[2-(3-amidinophenoxy)ethyl]-4-[2-(pyridine-4-yl)ethyl]benzamide bistrifluoroacetate] are 0.0501 µM and 20 µM.
`CC(=N)N1CCC(Oc2ccc(C[C@@H](COc3cccc(C(=N)N)c3)NS(=O)(=O)c3ccc(P(=O)(O)O)cc3)cc2)CC1.O=C(O)C(F)(F)F.O=C(O)C(F)(F)F` [Compound of Ex. 74]: the “Activity of inhibiting activated blood coagulation factor X (pIC50)” value in assay [1] (setting [2]) worked out at 7.6. For the same compound, on human thrombin (setting [3]), the “Thrombin-inhibiting activity (pIC50)” value was under 3.7.
`CN(C)C(=O)c1ccc(C(=O)NCCOc2cccc(C(=N)N)c2)cc1` [Compound of Ex. 3, N-[2-(3-amidinophenoxy)ethyl]-4-(N,N-dimethylcarbamoyl)benzamide trifluoroacetate]: the IC50 in assay [1] (setting [2]) was 0.0251 µM.
For the compound `N=C(N)c1cccc(OCCNC(=O)c2ccc(CC3CCNCC3)cc2)c1` [Compound of Ex. 43, N-[2-(3-amidinophenoxy)ethyl]-4-[(piperidine-4-yl)methyl]benzamide bistrifluoroacetate], the results for the IC50 (in assay [1] (setting [2]); on human thrombin (setting [3])) were 0.251 µM and 50.1 µM, respectively.
As for `N=C(N)c1ccc(NC(=O)CCCOc2cccc(C(=N)N)c2)cc1` [Compound of Ex. 67, 4-(3-amidinophenoxy)-N-(4-amidinophenyl)butyramide bistrifluoroacetate], the figures for the IC50 (in assay [1] (setting [2]); at human thrombin (setting [3])) were 0.316 µM and 316 µM, respectively.
In the case of `CCOC(=O)C[C@H](COc1cccc(C(=N)N)c1)NC(=O)c1ccc(-c2ccccc2)cc1` [Compound of Ex. 54, ethyl (3R)-3-[(biphenyl-4-carbonyl)amino]-4-(3-amidinophenoxy)butyrate trifluoroacetate], the IC50 was 0.0501 µM in assay [1] (setting [2]) and 25.1 µM on human thrombin (setting [3]).
Regarding `N=C(N)c1cccc(OC[C@@H](CC(=O)O)NC(=O)c2ccc(N3CCCC3)cc2)c1` [Compound of Ex. 58, (3R)-4-(3-amidinophenoxy)-3-[4-(pyrrolidine-1-yl)benzoylamino]butyric acid trifluoroacetate], the IC50 in assay [1] (setting [2]) was 0.0251 µM; at human thrombin (setting [3]) it was over 1000 µM.
Consider `CN(C)C(=O)c1ccc(C(=O)N[C@@H](COc2cccc(C(=N)N)c2)CC(=O)O)cc1` [Compound of Ex. 56, (3R)-4-(3-amidinophenoxy)-3-[(4-dimethylcarbamoylbenzoyl)amino]butyric acid trifluoroacetate], for which the IC50 in assay [1] (setting [2]) was 0.0158 µM; at human thrombin (setting [3]), over 1000 µM.
`N=C(N)Nc1ccc(C(=O)N[C@@H](COc2cccc(C(=N)N)c2)CC(=O)O)cc1` [Compound of Ex. 57, (3R)-4-(3-amidinophenoxy)-3-[(4-guanidinobenzoyl)amino]butyric acid bistrifluoroacetate]: the IC50 in assay [1] (setting [2]) is 0.0126 µM; on human thrombin (setting [3]) it was over 1000 µM.
For `N=C(N)c1ccc(C(=O)N(CCOc2cccc(C(=N)N)c2)Cc2ccccc2)cc1` [Compound of Ex. 114, N-[2-(3-amidinophenoxy)ethyl]-N-phenylmethyl-4-amidinobenzamide bistrifluoroacetate], the figures for the IC50 (in assay [1] (setting [4]); at human thrombin (setting [5])) were 0.0501 µM and 79.4 µM, respectively.
`N=C(N)c1ccc(C(=S)NCCOc2cccc(C(=N)N)c2)cc1` [Compound of Ex. 1, N-[2-(3-amidinophenoxy)ethyl]-4-amidinobenzthioamide bistrifluoroacetate]: the IC50 in assay [1] (setting [2]) is 0.398 µM; on human thrombin (setting [3]), 398 µM.
As to `CC(=N)N1CCC(Oc2ccc(C[C@@H](COc3cccc(C(=N)N)c3)NS(=O)(=O)c3ccc4ccccc4c3)cc2)CC1` [Compound of Ex. 162, 3-[(2S)-2-(2-naphthalenesulfonylamino)-3-[4-(1-acetimidoyl-4-piperidyloxy)phenyl]propoxy]benzamidine bistrifluoroacetate], the IC50 in assay [1] (setting [4]) is 0.251 µM; at human thrombin (setting [5]) it was 39.8 µM.
For “N-[2-(3-amidinophenoxy)ethyl]-1-(4-pyridyl)piperidine-4-carboxyamide bistrifluoroacetate [Compound of Ex. 24]”, the “Activity of inhibiting activated blood coagulation factor X (pIC50)” value in assay [1] (setting [2]) amounted to 6.5. Further, the “Thrombin-inhibiting activity (pIC50)” value on human thrombin (setting [3]) is listed as 3.2.
Consider `N=C(N)c1ccc(CC(=O)C(=O)O)c(OCCNC(=O)c2ccc(N3CCCC3)cc2)c1` [Compound of Ex. 82, 3-[4-amidino-2-[2-[4-(pyrrolidine-1-yl)benzoylamino]ethoxy]phenyl]-2-oxopropionic acid trifluoroacetate], for which the results for the IC50 (in assay [1] (setting [2]); on human thrombin (setting [3])) were 0.0251 µM and 6.31 µM, respectively.
In the case of `N=C(N)c1ccc(C(=O)Nc2cccc(COc3cccc(C(=N)N)c3)c2)cc1.O=C(O)C(F)(F)F.O=C(O)C(F)(F)F` [Compound of Ex. 69, N-[3-(3-amidinophenoxymethyl)]phenyl-4-amidinobenzamide bistrifluoroacetate], the “Activity of inhibiting activated blood coagulation factor X (pIC50)” value in assay [1] (setting [2]) is 6.6. The “Thrombin-inhibiting activity (pIC50)” value on human thrombin (setting [3]) stood at 4.5.
